Measurements reported in patent US5707963A, “Methods of using growth inhibitory peptides” (Health Research, Incorporated, priority 1996, dated 1998).

B1: full-length transformed AFP molecule: full-length alpha-fetoprotein transformed by incubation with estradiol (E2) (protein, UniProt P02771 19-609, looked up)
Alpha-fetoprotein: RTLHRNEYGIASILDSYQCTAEISLADLATIFFAQFVQEATYKEVSKMVKDALTAIEKPTGDEQSSGCLENQLPAFLEELCHEKEILEKYGHSDCCSQSEEGRHNCFLAHKKPTPASIPLFQVPEPVTSCEAYEEDRETFMNKFIYEIARRHPFLYAPTILLWAARYDKIIPSCCKAENAVECFQTKAATVTKELRESSLLNQHACAVMKNFGTRTFQAITVTKLSQKFTKVNFTEIQKLVLDVAHVHEHCCRGDVLDCLQDGEKIMSYICSQQDTLSNKITECCKLTTLERGQCIIHAENDEKPEGLSPNLNRFLGDRDFNQFSSGEKNIFLASFVHEYSRRHPQLAVSVILRVAKGYQELLEKCFQTENPLECQDKGEEELQKYIQESQALAKRSCGLFQKLGEYYLQNAFLVAYTKKAPQLTSSELMAITRKMAATAATCCQLSEDKLLACGEGAADIIIGHLCIRHEMTPVNPGVGQCCTSSYANRRPCFSSLVVDETYVPPAFSDDKFIFHKDLCQAQGVALQTMKQEFLINLVKQKPQITEEQLEAVIADFSGLLEKCCQGQEQEVCFAEEGQKLISKTRAALGV
modifications: transformed by estradiol incubation

Assays:
[1] = tested on: estrogen-stimulated growth of mouse uterus; assay type: in vivo; details: immature mouse uterus, 10-100 ng per mouse, peak assay point of the dilution series
Method: An in vivo wet weight bioassay measuring inhibition of estrogen-stimulated growth of uteri was performed. The procedure of Mizejewski et al. was used for the wet weight assay (see Mizejewski, G. J. et al. (1983); Mizejewski, G. J. et al. (1986); Mizejewski, G. J. and A. S. Warner (1989); Mizejewski, G. J. et al., "Separation of the Estrogen-Activated Growth-Regulatory Forms of Alpha-Fetoprotein in Mouse Amniotic Fluid," Biol of Reprod 42:887-898 (1990); and Allen, S.H.G. et al. (1993)).
Briefly, the synthesized powdered peptide was reconstituted in saline (1 mg/ml) to form a stock solution of the GIP. The stock solution was appropriately diluted to provide dosages of 25 to 100 ng/mouse. 0.1 ml of the appropriately diluted GIP was injected intraperitoneally into 15-18 day old Nya:NYLAR female mice. Control mice were injected with saline or other peptides, including a peptide encoded by a portion of the amino acid sequence of albumin and a random 34 amino acid peptide. 1 hour after this first injection, an estrogen challenge of 0.5 micrograms of E2 in 0.1 ml saline was given to determine the change in uterine responsiveness to E2 resulting from exposure to the first injection. 23 hours after the second injection, uteri were dissected, trimmed free of connective tissue and immediately weighed. The uterine wet weights were normalized to mouse body weight (mg uterine weight/g of body weight) to compensate for differences in body weight among litters of the same age. Percent inhibition of estrogen-stimulated uterine growth was calculated as described by Mizejewski et al. (1983).
Two separate bioassays for inhibition of estrogen-stimulated growth were used. The first was an in vivo bioassay measuring an estrogen-induced increase in wet weight of the immature mouse uterus in a 24-hour determination. Dosages of peptide fragments ranged from 10 to 100 ng, and the %inhibition given in Table 6 represents the peak assay point of the dilution series.

[2] = transformed human AFP preparations
[3] = tested on: estrogen-stimulated growth of mouse uterus; details: full-length transformed AFP, see references cited; cited from earlier work

Row | Molecule | Percent Growth Inhibition [1] | time activity is retained [2] | inhibition of estrogen-stimulated growth [3]
1 | SEQ ID NO:7: 3' fragment generated by cutting SEQ ID NO:1 with trypsin; 5 amino acids in length (LSEDK) | no detectable growth inhibition | – | –
2 | SEQ ID NO:5: 5' fragment generated by cutting the 34 amino acid peptide SEQ ID NO:1 with trypsin (HEMTPVNPGV) | 38% | – | –
3 | B1 | – | one week or less | 20-40%
